Measured values: patent US20230301925A1, “PHOSPHOLIPID PRESENTING PARTICLES FOR CELL TARGETING IN THERAPY AND DIAGNOSTICS” (UNIVERSITY OF SOUTH CAROLINA, priority 2022, published 2023)

System: BMDMs
Assay: UNC2025 with PS:PLG particle treatment of LPS-inflamed primary macrophages
Format: cell-based, mice
Settings: LPS 1 ng/mL, PS:PLG 1:10 cell to particle ratio
Procedure: FIG. 10 depicts TNF-α secreted by BMDMs pre-treated with UNC2025 followed by a co-treatment with LPS (1 ng/mL) and PS:PLG (1:10 cell to particle ratio).
FIG. 11 depicts IL-6 secreted by BMDMs pre-treated with UNC2025 followed by a co-treatment with LPS (1 ng/mL) and PS:PLG (1:10 cell to particle ratio).
FIG. 12 depicts IL-10 secreted by BMDMs pre-treated with UNC2025 followed by a co-treatment with LPS (1 ng/mL) and PS:PLG (1:10 cell to particle ratio).
This effect is not limited to UNC2025 but applicable to a broad range of bioactive molecules including small molecules, nucleic acids, peptides, lipids, glycans, etcetera.

## CCCCNc1ncc2c(-c3ccc(CN4CCN(C)CC4)cc3)cn([C@H]3CC[C@H](O)CC3)c2n1 [UNC2025]
  anti-inflammatory response of PS:PLG particle treatment with co-delivery of small molecule (TNF-α, IL-6, IL-10): synergistically enhanced
